# Source: patent EP4813989A1, “CRYSTAL, PHARMACEUTICAL COMPOSITION, PREPARATION METHOD THEREFOR, AND USE THEREOF” (TYK Medicines, Inc., priority 2023, dated 2025)
# Assay: Pharmacokinetic test in SD rats
# Assay type: in vivo
# Details: for AUC(0-inf) / AUC(0-t) / Cmax / MRT last / Tmax: rat, plasma, po; for AUC(0-inf) / AUC(0-t) / Cmax / MRT last / Tmax / Plasma concentration: 10 mg/kg; for Plasma concentration: 10 mg/kg p.o., listed as compound represented by formula I (amorphous form)
# Procedure: Experimental animals: healthy adult SD rats, male, 6 in total, divided into two groups, with 3 rats per group, aged 6-8 weeks; and body weight approximately 200-300 g. The rats were fed in rat cages, and fasted (for at least 10 hours) with free access to water one day before the experiment. On the day of experiment, the rats were weighed and marked at the tail respectively. Blank blood samples were collected respectively before drug administration. The blood samples were collected via the tail vein. Drug administration method: intragastric gavage (p.o.): intragastric gavage with drug suspension; preparation of drug suspension: approximately 10 mg of test sample was accurately weighed, dissolved in 5% DMSO (calculated proportion), and vortexed with 10% solutol HS-15 and 85% saline to obtain a suspension with a concentration of 1.0 mg/mL; and the suspension was freshly prepared before use.
# Sample collection: the rats were administered a single oral dose of 10mg/kg via intragastric gavage (p.o.). Timing was started immediately after the administration was completed, and blood samples were collected at 0.5, 1, 2, 4, 6, 8, 12 and 24 hours after administration. A volume of 0.1mL of whole blood was collected into EDTA-Na2 anticoagulant tubes, mixed by inverting 3-4 times, centrifuged at 10000 g for 5 minutes at 4°C to separate the plasma, and then the plasma was stored at -80 °C until testing. The blood samples were collected via the tail vein.
# Sample preparation: 1) the samples were thawed, and 15 µL of unknown plasma samples before or after administration, standard series solutions, and single blank and double blank samples were respectively transferred into 1.5 mL centrifuge tubes. 2) 15 µL of protein precipitant (methanol) and 400 µL of internal standard solution (verapamil in methanol, approximately 10 ng/mL) were added to each sample sequentially, vortexed for 2 minutes, and then centrifuged at 4°C and 12000 rpm for 10 minutes. 3) The supernatant was collected for LC-MS/MS detection.
# Analytical conditions: liquid chromatography conditions: liquid chromatography system: Shimadzu Nexera X2; chromatographic column: Agilent ZORBAX XDB-C18 3.5 (2.1 × 50 mm); column temperature: 35°C; mobile phase: A-5% acetonitrile (0.1% formic acid in water), B-95% acetonitrile (0.1% formic acid in water); injection volume: 3 µL; and
# flow rate: 0.5 mL/min. Gradient elution was employed, and an elution program can be seen in the table below.
# Mass spectrometry conditions: mass spectrometric analysis was carried out using an electrospray ionization (ESI) source in a positive ion mode with multiple reaction monitoring (MRM). The mass spectrometer ion source parameters and compound detection parameters can be seen in the table below.
# PK parameter processing: pharmacokinetic (PK) parameters were calculated according to a plasma concentration from individual plasma concentration and corresponding sampling time data using Phoenix WinNonlin software with a non-compartmental model. (1) The PK parameters used for pharmacokinetic evaluation included: Cmax, AUC0-t, AUC0-∞, Tmax and t1/2.
# (2) The parameters used for bioequivalence evaluation: Cmax, AUC0-t and AUC0-∞ were used for the bioequivalence evaluation.
# Cmax: maximum plasma concentration measured within specified period, presented as measured value.
# Tmax: time measured to reach maximum plasma concentration, presented as measured value. If the maximum value occurred at more than one time point, Tmax was defined as the first time point at which this value was observed.
# AUC0-t: area under plasma concentration-time curve from 0 to last time point t.
# AUC0-∞: area under plasma concentration-time curve from 0 to infinity. Ct was the last measured concentration, and λz was the terminal elimination rate constant. AUC0−∞ = AUC0−t + (Ct)/(λz)AUC0−∞ = AUC0−t + (Ct)/(λz) [formula]
# t1/2: elimination or terminal half-life, estimated by ln2/λz.
# [1] = Mean of rats No. 1-3, intragastric gavage at 10 mg/kg
# [2] = rat No. 1, intragastric gavage at 10 mg/kg
# [3] = rat No. 2, intragastric gavage at 10 mg/kg
# [4] = rat No. 3, intragastric gavage at 10 mg/kg
# [5] = rats, intragastric gavage 10 mg/kg, Mean
smiles,measurement,setting,value
C[C@@H](Nc1ccn2ncc(C3=NOC(C)(C)N3)c2n1)c1cc(F)cc(F)c1F [amorphous form],HL_,[1],8.72 h
same,HL_,[2],6.05 h
same,HL_,[3],17.2 h
same,HL_,[4],2.93 h
same,AUC(0-inf),[1],1560 ng·h/mL
same,AUC(0-t),[1],1080 ng·h/mL
same,Cmax,[1],151 ng/mL
same,MRT last,[1],7.55 h
same,Tmax,[1],6 h
same,AUC(0-inf),[2],982 ng·h/mL
same,AUC(0-t),[2],894 ng·h/mL
same,Cmax,[2],87.1 ng/mL
same,MRT last,[2],7.84 h
same,Tmax,[2],8 h
same,AUC(0-inf),[3],3200 ng·h/mL
same,AUC(0-t),[3],1910 ng·h/mL
same,Cmax,[3],307 ng/mL
same,MRT last,[3],9.26 h
same,Tmax,[3],4 h
same,AUC(0-inf),[4],487 ng·h/mL
same,AUC(0-t),[4],428 ng·h/mL
same,Cmax,[4],58.3 ng/mL
same,MRT last,[4],5.56 h
same,Tmax,[4],6 h
same,AUC(0-t),[5],1080 ng·h/mL
same,Cmax,[5],151 ng/mL
same,Plasma concentration,"rats, 0.5 h, Mean",41.0 ng/mL
same,Plasma concentration,"rats, 0.5 h, No. 1",44.5 ng/mL
same,Plasma concentration,"rats, 0.5 h, No. 2",49.0 ng/mL
same,Plasma concentration,"rats, 0.5 h, No. 3",29.4 ng/mL
same,Plasma concentration,"rats, 1 h, Mean",22.5 ng/mL
same,Plasma concentration,"rats, 1 h, No. 1",20.8 ng/mL
same,Plasma concentration,"rats, 1 h, No. 2",21.5 ng/mL
same,Plasma concentration,"rats, 1 h, No. 3",25.3 ng/mL
same,Plasma concentration,"rats, 2 h, Mean",56.2 ng/mL
same,Plasma concentration,"rats, 2 h, No. 1",64.1 ng/mL
same,Plasma concentration,"rats, 2 h, No. 2",71.2 ng/mL
same,Plasma concentration,"rats, 2 h, No. 3",33.2 ng/mL
same,Plasma concentration,"rats, 4 h, Mean",142 ng/mL
same,Plasma concentration,"rats, 4 h, No. 1",71.7 ng/mL
same,Plasma concentration,"rats, 4 h, No. 3",47.9 ng/mL
same,Plasma concentration,"rats, 6 h, Mean",86.2 ng/mL
same,Plasma concentration,"rats, 6 h, No. 1",72.4 ng/mL
same,Plasma concentration,"rats, 6 h, No. 2",128 ng/mL
same,Plasma concentration,"rats, 6 h, No. 3",58.3 ng/mL
same,Plasma concentration,"rats, 8 h, Mean",68.7 ng/mL
same,Plasma concentration,"rats, 8 h, No. 1",87.1 ng/mL
same,Plasma concentration,"rats, 8 h, No. 2",84.3 ng/mL
same,Plasma concentration,"rats, 8 h, No. 3",34.7 ng/mL
same,Plasma concentration,"rats, 12 h, Mean",24.4 ng/mL
same,Plasma concentration,"rats, 12 h, No. 1",18.6 ng/mL
same,Plasma concentration,"rats, 12 h, No. 2",40.6 ng/mL
same,Plasma concentration,"rats, 12 h, No. 3",14.0 ng/mL
same,Plasma concentration,"rats, 24 h, Mean",31.2 ng/mL
same,Plasma concentration,"rats, 24 h, No. 1",10.2 ng/mL
same,Plasma concentration,"rats, 24 h, No. 2",52.2 ng/mL
